Experimental data reported in publication PMC6271887, “Antiparasitic Activity of Natural and Semi-Synthetic Tirucallane Triterpenoids from Schinus terebinthifolius (Anacardiaceae): Structure/Activity Relationships” (Molecules, 2014).
Converted amounts (≈) assume the structure as drawn. Where two headings read alike, the source gives them in different places.

Assays:
[1] = system: L. infantum intracellular amastigotes; assay: Activity against L. infantum intracellular amastigotes in peritoneal macrophages (Giemsa, microscopy); type: cell-based, Leishmania (L.) infantum; settings: for SI AMA: selectivity index amastigotes: CC50 mammalian cells/IC50 Leishmania amastigotes; for IC50: Leishmania infantum, Peritoneal macrophage, intracellular, peritoneal macrophages, 120 h, 100 to 0.78 μg/mL, NA: not active, read-out: IC50 CI95% L. infantum Amastigotes; for L. infantum (Amastigotes) Experimental: class, without activity at 100 µg/mL = inactive
Experimental: (§1) Isolated promastigotes of L. (L.) infantum (MHOM/BR/1972/LD) were maintained in M-199 medium supplemented with 10% fetal bovine serum (FBS) and 0.25% hemin at 24 °C. L. infantum was maintained in golden hamsters up to 60–70 days post-infection. Amastigotes were harvested from spleens of infected hamsters by differential centrifugation. T. cruzi trypomastigotes (Y strain) were maintained in LLC-MK2 (ATCC CCL 7) cells using RPMI-1640 medium supplemented with 2% FBS at 37 °C 5% CO2-humidified incubator [21].
Peritoneal macrophages were collected from the peritoneal cavity of female BALB/c mice by washing with RPMI-1640 without phenol red, supplemented with 10% FBS. NCTC (clone 929) cells were maintained in RPMI-1640 (without phenol red and supplemented with 10% FBS) at 37 °C in a humidified atmosphere containing 5% CO2 [31].
Peritoneal macrophages were obtained as described previously and L. infantum amastigotes were obtained from spleens of infected hamsters by differential centrifugation. Peritoneal macrophages were seeded at 1 × 10^5 cells per well in Nunc™ 16-well slide chambers (Aldrich, St. Louis, MO, USA) for 24 h at 37 °C in a 5% CO2-humidified incubator. Amastigotes were added to macrophages at 10:1 ratio (amastigotes:macrophage) and incubated for 24 h. Non-internalized parasites were removed by washing twice with medium and the cells were then incubated with compounds in a range concentration of 100 to 0.78 μg/mL for 120 h at 37 °C in 5% CO2, using miltefosine as standard drug. At the end of the assay, the cells were fixed in methanol, stained with Giemsa and observed under a light microscope to determine the number of infected macrophages out of 400 cells.

[2] = system: NCTC clone 929 cells; assay: Cytotoxicity against mammalian cells (MTT); type: cell-based
Experimental: (§2) Peritoneal macrophages were collected from the peritoneal cavity of female BALB/c mice by washing with RPMI-1640 without phenol red, supplemented with 10% FBS. NCTC (clone 929) cells were maintained in RPMI-1640 (without phenol red and supplemented with 10% FBS) at 37 °C in a humidified atmosphere containing 5% CO2 [31]. The 50% cytotoxic concentration (CC50) was determined in NCTC clone 929 cells. NCTC cells were seeded at 6 × 10^4 cells/well in 96-well microplates at 37 °C in a 5% CO2. The mammalian cells were incubated with tested compounds to the highest concentration of 200 μg/mL for 48 h at 37 °C, using miltefosine as standard drug. The viability of the cells was determined by MTT assay at 570 nm. The selectivity index (SI) was determined considering the following equation: CC50 NCTC cells/IC50 parasites.

[3] = Cytotoxicity against mammalian cells (MTT); type: cell-based; settings: mouse
Experimental: as §2

[4] = system: T. cruzi trypomastigotes (Y strain); assay: Activity against Trypanosoma cruzi trypomastigotes (MTT); type: cell-based; settings: for T. cruzi (Trypomastigotes) Experimental: class, without activity at 100 µg/mL = inactive; for SI TRY: selectivity index trypomastigotes: CC50 mammalian cells/IC50 trypomastigotes; for IC50: Trypanosoma cruzi, 37 °C, 100 to 0.78 μg/mL, NA: not active, read-out: IC50 CI95% T. cruzi Trypomastigotes
Experimental: as §1
Compounds 1–3, 1a–c, 2a–d, 3a, and 3b were dissolved in DMSO and diluted in RPMI-1640 medium to determine the 50% inhibitory concentration (IC50) as described above for the antileishmanial assay. Free trypomastigotes obtained from LLC-MK2 cultures were counted in a Neubauer hemocytometer and seeded at 1 × 10^6/well in 96-well microplates. The tested compounds were incubated in a range concentration of 100 to 0.78 μg/mL for 24 h at 37 °C in a 5% CO2 humidified incubator, using benznidazole as standard drug. The viability of the trypomastigotes was verified by the MTT assay as described above.

[5] = system: extracellular forms of the parasite; design: method as in PMID 10603400; settings: cited from earlier work
[6] = system: T. cruzi trypomastigotes (Y strain); design: method as in PMID 24340110; settings: CI95% not given; cited from earlier work
[7] = system: L. infantum intracellular amastigotes; design: method as in PMID 24374794; settings: CI95% not given; cited from earlier work
[8] = system: L. infantum promastigotes; design: method as in PMID 24374794; settings: CI95% not given; cited from earlier work
[9] = system: L. infantum promastigotes; assay: Activity against L. infantum promastigotes (MTT, light microscopy); type: cell-based; settings: Leishmania infantum; 48 h, 24 °C, 100 to 0.78 μg/mL; NA: not active; read-out: IC50 CI95% L. infantum Promastigotes
Experimental: as §1
To determine the 50% inhibitory concentration (IC50) against L. infantum promastigotes, compounds 1–3, 1a–c, 2a–d, 3a, and 3b were previously dissolved in dimethyl sulphoxide (DMSO) and diluted with M-199 medium in 96-well microplates. Promastigotes were counted in a Neubauer hemocytometer and seeded at 1 × 10^6/well with a final volume of 150 μL. The tested compounds were incubated in a range concentration of 100 to 0.78 μg/mL for 48 h at 24 °C. The viability of promastigotes was verified by motility and morphology using light microscopy and by the colorimetric MTT assay. Briefly, 3-[4,5-dimethylthiazol-2-yl]-2,5-diphenyltetrazolium bromide (MTT, 5 mg/mL) was dissolved in phosphate-buffered saline (PBS), sterilized through 0.22 µm membranes and added, 20 µL/well, for 4 h at 24 °C. […]

[10] = NCTC clone 929 cells, NCTC clone 929, 48 h, highest concentration 200 μg/mL, read-out: CC50 CI95% NCTC

SMILES	SI AMA: selectivity index amastigotes [1]	L. infantum (Amastigotes) Experimental [1]	CC50 at 48 h ([3]; CC50 CI95% NCTC) [µg/mL]	SI TRY: selectivity index trypomastigotes [4]	IC50 ([4]; 24 h) [µg/mL]	NCTC Experimental [2]	further results
C/C(=C/CCC(C)[C@@H]1CC[C@]2(C)C3=CCC4C(C)(C)C(=O)CC[C@]4(C)C3CC[C@@]12C)C(=O)O (stereo partly shown) [Compound 1, 3-Oxotirucalla-7,24Z-dien-27-oic acid]	>3						IC50 [1]: 66.5 µg/mL (≈ 146 µM); NCTC Experimental ([2]; cytotoxicity class): I; CC50 at 48 h [3, 10]: > 200 µg/mL; IC50 against T. cruzi trypomastigotes ([4]; 24 h): lack of activity; T. cruzi (Trypomastigotes) Experimental [4]: I
C/C(=C/CCC(C)[C@@H]1CC[C@]2(C)C3=CCC4C(C)(C)C(O)CC[C@]4(C)C3CC[C@@]12C)C(=O)O (stereo partly shown) [Compound 1a, 3ξ-Hydroxytirucalla-7,24Z-dien-27-oic acid]		I	69.5 (≈ 152 µM)	3.4	20.2 (≈ 44.2 µM)		
CNC[C@H](O)[C@@H](O)[C@H](O)[C@H](O)CO.[O]=[Sb](=[O])[OH] [glucantime]							effectiveness against the extracellular forms of the parasite [5]: no effectiveness
C/C(=C\CCC(C)[C@@H]1CC[C@]2(C)C3=CCC4C(C)(C)C(=O)CC[C@]4(C)C3CC[C@@]12C)C(=O)O (stereo partly shown) [Compound 2, 3-Oxotirucalla-7,24E-dien-27-oic acid]	1.5			6.1	15.8 (≈ 34.6 µM)		IC50 [1]: 64.9 µg/mL (≈ 143 µM); CC50 CI95% NCTC ([2]; NCTC clone 929, 48 h, highest concentration 200 μg/mL): 96.48 (77.38–120.30) μg/mL; NCTC Experimental ([2]; cytotoxicity class): I; CC50 at 48 h [3, 10]: 96 µg/mL (≈ 211 µM)
COC(=O)/C(C)=C\CCC(C)[C@@H]1CC[C@]2(C)C3=CCC4C(C)(C)[C@H](OC(C)=O)CC[C@]4(C)C3CC[C@@]12C (stereo partly drawn) [Compound 3b, Methyl 3α-acetoxytirucalla-7,24Z-dien-27-oate]		I	> 200			I	
CC(=O)OC1CC[C@]2(C)C3CC[C@@]4(C)[C@H](C(C)CC/C=C(\C)C(=O)O)CC[C@]4(C)C3=CCC2C1(C)C (stereo partly shown) [Compound 2b, 3ξ-Acetoxytirucalla-7,24E-dien-27-oic acid]		I	69.3 (≈ 139 µM)	1.1	58.4 (≈ 117 µM)	I	
CC(=O)OC1CC[C@]2(C)C3CC[C@@]4(C)[C@H](C(C)CCCC(C)C(=O)O)CC[C@]4(C)C3=CCC2C1(C)C (stereo partly shown) [Compound 2c, 3ξ-Acetoxytirucall-7-en-27-oic acid]		I	57.8 (≈ 115 µM)	1.2	49.2 (≈ 98.2 µM)	I	
O=C(Cn1ccnc1[N+](=O)[O-])NCc1ccccc1 [benznidazole]							IC50 T. cruzi Trypomastigotes (standard drug) [6]: 115 µg/mL (≈ 441 µM)
CCCCCCCCCCCCCCCCOP(=O)([O-])OCC[N+](C)(C)C [miltefosine, reference compound]	7						CC50 at 48 h [3, 10]: 49.7 µg/mL (≈ 122 µM); IC50 L. infantum Amastigotes (standard drug) [7]: 7.25 µg/mL (≈ 17.8 µM); IC50 L. infantum Promastigotes (standard drug) [8]: 6.87 µg/mL (≈ 16.9 µM)
C/C(=C\CCC(C)[C@@H]1CC[C@]2(C)C3=CCC4C(C)(C)C(O)CC[C@]4(C)C3CC[C@@]12C)C(=O)O (stereo partly shown) [Compound 2a, 3ξ-Hydroxytirucalla-7,24E-dien-27-oic acid]	1.0		95.5 (≈ 209 µM)	3.2	29.6 (≈ 64.8 µM)	I	IC50 [1]: 97.6 µg/mL (≈ 214 µM)
CC(CCCC(C)[C@@H]1CC[C@]2(C)C3=CCC4C(C)(C)C(O)CC[C@]4(C)C3CC[C@@]12C)C(=O)O (stereo partly shown) [Compound 1b, 3ξ-Hydroxytirucall-7-en-27-oic acid]		I	76.4 (≈ 167 µM)	4.3	17.6 (≈ 38.5 µM)		
COC(=O)/C(C)=C/CCC(C)[C@@H]1CC[C@]2(C)C3=CCC4C(C)(C)C(=O)CC[C@]4(C)C3CC[C@@]12C (stereo partly shown) [Compound 2d, Methyl 3-oxotirucalla-7,24E-dien-27-oate]		I					NCTC Experimental ([2]; cytotoxicity class): I; CC50 at 48 h [3, 10]: > 200 µg/mL; T. cruzi (Trypomastigotes) Experimental [4]: I
CC(CCCC(C)[C@@H]1CC[C@]2(C)C3=CCC4C(C)(C)C(=O)CC[C@]4(C)C3CC[C@@]12C)C(=O)O (stereo partly shown) [Compound 1c, 3-Oxotirucall-7-en-27-oic acid]		I	> 200			I	T. cruzi (Trypomastigotes) Experimental [4]: I
C/C(=C/CCC(C)[C@@H]1CC[C@]2(C)C3=CCC4C(C)(C)[C@H](O)CC[C@]4(C)C3CC[C@@]12C)C(=O)O (stereo partly drawn) [Compound 3, 3α-Hydroxytirucalla-7,24Z-dien-27-oic acid]	2.4		69 (≈ 151 µM)	4.3	16.3 (≈ 35.6 µM)		IC50 [1]: 28.9 µg/mL (≈ 63.4 µM); CC50 CI95% NCTC ([2]; mouse, 48 h): 69.50 (64.01–75.45) μg/mL; IC50 [9]: 57.8 µg/mL (≈ 127 µM)
COC(=O)/C(C)=C\CCC(C)[C@@H]1CC[C@]2(C)C3=CCC4C(C)(C)[C@H](O)CC[C@]4(C)C3CC[C@@]12C (stereo partly drawn) [Compound 3a, Methyl 3α-hydroxytirucalla-7,24Z-dien-27-oate]		I	> 200			I	
